According to patent publication US10487313B2, “Efficient induction of definitive endoderm from pluripotent stem cells” (Novo Nordisk A/S, priority 2011, dated 2019):
“Also recorded” adds a separate entry of the source.

Key:
[1] = tested on: hES cells (SA121) in mTeSR culture system; experiment: Immunostainings and OCT4/SOX17+ cell quantification in the mTeSR system; format: cell-based, human; settings: Chir 7 μM or D'Amour
Experimental: hES cells (SA121) were cluster passaged from feeders (MEFs) to Matrigel (BD Biosciences) in mTeSR1 media ([…]) and passaged further with Dispase (BD Biosciences) according to the culture system protocol. DE was initiated once clusters started to touch each other Confluent cultures were washed once in RPMI1640 (Invitrogen) before 24 hour pre-treatment with 0,5-7μM CHIR99021 (Stemgent) in RPMI. Control cells were left untreated in RPMI and D'Amour cells were either left in RPMI or treated with AA (Peprotech)+Wnt3a (R&D Systems) without pre-treatment depending on experimental setup. After 24 hours, pretreated and control cells were washed once with RPMI before adding 100 ng/ml AA in RPMI. D'Amour cells were also treated with 100 ng/ml AA but with 0,2% FBS instead of B27. 24 h later, 2% B27 (Invitrogen) was added to the AA media for 2-3 d. Control cells were treated with B27 to prevent cell death and D'Amour cells with 2% FBS according to published protocol. Media was changed every day. Cells were washed in PBS+/+ and fixed in 4% formaldehyde for 30 min (10% formaline, VWR). The cells were then washed again three times in PBS and left in PBS (4° C.) until staining. Fixed cells were washed with PBS once, then permeabilized with 0.5% Triton X-100 in PBS for 6 min, washed in PBS and blocked with TNB buffer (0.1 M Tris-HCL pH 7.5, 0.15 M NaCl, 0.5% Blocking Reagent (Perkin Elmer)) for 30 min. Primary antibodies (goat-anti-SOX17 (AF1924, RnD Systems); goat-anti-Brachyury (AF2085, RnD Systems); mouse-anti-OCT4 (sc5279, SantaCruz Biotechnology); goat-anti-PDX1 (AB47383, Abcam)) were added in 0.1% TritonX-100+PBS for 1 h in RT or 4° C. O/N. After a thorough washing step in PBS, secondary antibodies were added together with DAPI in 0.1% Triton X-100+PBS for 45 min at RT, washed thoroughly in PBS and left in PBS until photodocumentation.

[2] = tested on: SA121 hES and chIPS4 iPS cells; experiment: Quantitative real-time PCR of PS and DE markers (Brachyury, SOX17) during DE induction; format: cell-based, human
Experimental: Human embryonic stem (hES) cells SA121 and chIPS4 (Cellartis) were grown on human fibronectin (Sigma) in DEF culture media (Cellartis) with 30 ng/ml bFGF (Invitrogen) and 10 ng/ml Noggin (Peprotech) in 6-96 well plates. Cells were single cell passaged with Rock inhibitor Y-27632 (Calbiochem) and seeded at a density of 40000 cells/cm2 for experiments. Experiments were initiated 4 d after passage.
Confluent cultures were washed once in RPMI1640 (Invitrogen) before 24 hour pre-treatment with 0,5-7μM CHIR99021 (Stemgent) in RPMI. Control cells were left untreated in RPMI and D'Amour cells were either left in RPMI or treated with AA (Peprotech)+Wnt3a (R&D Systems) without pre-treatment depending on experimental setup.
After 24 hours, pretreated and control cells were washed once with RPMI before adding 100 ng/ml AA in RPMI. D'Amour cells were also treated with 100 ng/ml AA but with 0,2% FBS instead of B27. 24 h later, 2% B27 (Invitrogen) was added to the AA media for 2-3 d. Control cells were treated with B27 to prevent cell death and D'Amour cells with 2% FBS according to published protocol. Media was changed every day.
RNA samples were collected after 24 h pre-treatment (D1), after 1 day of AA treatment (D2) and after 1-2 d of AA+B27 treatment (D3-4). Total RNA was extracted with the Rneasy Plus Mini kit (Qiagen) and quantitative real-time PCR was performed using the StepOnePLus system (Applied Biosystems).
Undifferentiated SA121 hES and chIPS4 iPS cells in DEF media (DO) were cultured either in RPMI without CHIR (Ctrl D1) or treated for 24 h with CHIR in RPMI (CHIR D1). The cells were then washed to ensure absence of CHIR and then both conditions were treated with 1 d AA (Ctrl and CHIR d2). […] T fold inductions after 24 h CHIR treatment spanned between 500-100000 compared to undifferentiated cells (d0). T protein levels were also confirmed with ICC (FIG. 2C).
The efficiency levels for both T and SOX17 were highly robust (n>60) and confirmed with IHC and SOX17 quantifications (FIG. 2C and Table 2.). […] SOX17 expression peaked already after one day of AA treatment when cells were subjected to CHIR for 24 h before AA induction.
hES SA121 and ChIPS4 cells were treated with either CHIR (3 μM), BIO (0.5 μM), Wnt3a (200 ng/ml) or AA alone (100 ng/ml) for 24 h prior to AA addition to show CHIR specificity (d1). Additionally, D'Amour (protocol as described in Kroon et al 2008) was tested in parallel.
Chir was titrated at concentrations between 1-7 uM and analyzed after 24 h Chir treatment (D1) and after 2 d of following AA treatment (D3).

[3] = 24 h CHIR (2-7 μM) in RPMI-1640, then AA containing medium

Cc1c[nH]c(-c2cnc(NCCNc3ccc(C#N)cn3)nc2-c2ccc(Cl)cc2Cl)n1 [CHIR, CHIR99021]
Oct4+ cell quantification ([1]; D3, Exp ME16b): 6.97
Sox17+ cell quantification ([1]; D3, Exp ME16b): 62.62
Oct4+ cell quantification ([1]; D3, Exp ME18b): 2.53
Sox17+ cell quantification ([1]; D3, Exp ME18b): 82.87
Oct4+ cell quantification ([1]; D3, Exp ME21a): 0.95
Sox17+ cell quantification ([1]; D3, Exp ME21a): 91.36
Oct4+ cell quantification ([1]; D3, Mean of three experiments): 3.5
Sox17+ cell quantification ([1]; D3, Mean of three experiments): 79.0
time of SOX17 mRNA expression peak [2, 3]: 2 days
time of SOX17 protein expression peak [2, 3]: 3 to 4 days
Sox17 expression ([2]; CHIR 1 uM, 2 d after AA treatment (D3)): significantly lower
Brachyury induction ([2]; CHIR 3 uM, after 24 h treatment (D1)): significantly seen; also recorded: significantly upregulated
DE induction after subsequent AA stimulation ([2]; CHIR concentrations below 2 μM, after 72 hrs): not induced
Brachyury (T) fold induction compared to undifferentiated cells ([2]; after 24 h CHIR treatment (D1), n>60): 500-100000 fold
